Measurements published in patent US6787546B2, “Heterocycle derivatives and drugs” (Nippon Shinyaku Co., Ltd., priority 1999, dated 2004).
In brackets after ≈: the same amount, converted by molar mass. Like-named read-outs stand apart in the source and are kept apart here.

What was measured:
[1] = test system: Colon-26 (Mouse Colon Cancer) Cells; assay: Anticancer activity against Colon-26 cells transplanted in mice; type: in vivo; conditions: day 21; for Tumor growth inhibition rate (%): 5 times at intervals of 4 days; for Number of Survival: 6 animals/group
Protocol: Anticancer Activity Against Colon-26 (Mouse Colon Cancer) Cells Transplanted in Mice
Colon-26 cells cultured in vitro were transplanted subcutaneously with an injection syringe in the right axillary region of Balb/c 5-week-old male mice (5×10^5 cells/animal). The mice were divided into groups of 6 animals/group when the tumor volume had reached about 120 mm^3 (Experiment 1) or about 100 mm^3 (Experiment 2). The test drug dissolved in 5% glucose solution was administered intravenously 5 times in total once daily at intervals of 4 days. The mice of control group were treated in the same manner with 5% glucose solution. The tumor volume was calculated according to the Equation 1 below on the basis of the major and minor axes of the tumor measured at a given interval with vernier calipers. [formula]
The growth rate was then calculated according to the Equation 2 based on the tumor volume, which was then applied to the Equation 3 for the calculation of the growth inhibition rate in drug-treatment group relative to the control group. [formula]
The tumor growth inhibition rate and the number of survivals at day 21 after initiation of the administration are shown in Table 1.

Solubility in water = type: physicochemical
Protocol: The water solubility of the compound of the present invention was measured at 25° C. As the control compounds, (E)-4-(2-(2-(N-(4-methoxybenzenesulfonyl)amino)-phenyl)ethenyl)pyridine 1-oxide (Compound A) and (E)-4-(2-(2-(N-acetyl-N-(4-methoxy-benzenesulfonyl)amino)phenyl)ethenyl)pyridine 1-oxide (Compound B) were used.

[2] = Experiment 2 (tumor about 100 mm^3 at start), 50 mg/kg i.v.
[3] = Experiment 2 (tumor about 100 mm^3 at start), 75 mg/kg i.v.
[4] = Experiment 1 (tumor about 120 mm^3 at start), 50 mg/kg i.v.
[5] = Experiment 1, dose not printed (second dose line of Example 5), i.v.
[6] = Experiment 1 (tumor about 120 mm^3 at start), 75 mg/kg i.v.

For `COc1ccc(S(=O)(=O)N(C(=O)CN2CCN(c3cccnc3)CC2)c2ccccc2/C=C/c2cc[n+]([O-])cc2)cc1.Cl.Cl`, the melting point was 167 °C (dec.).

With `COc1ccc(S(=O)(=O)N(C(=O)CN2CCCC2)c2ccccc2/C=C/c2cc[n+]([O-])cc2)cc1.Cl` [Example 14, (E)-4-(2-(2-(N-(4-Methoxybenzenesulfonyl)-N-pyrrolidinoacetylamino) -phenyl)ethenyl)pyridine 1-oxide hydrochloride] the “Tumor growth inhibition rate (%)” value [1, 2] was 78.6%, the “Tumor growth inhibition rate (%)” value [1, 3] was 84.1% and the “Number of Survival” value ([1]; Experiment 2, 50 mg/kg i.v.) was 6/6. For the same compound, the “Number of Survival” value ([1]; Experiment 2, 75 mg/kg i.v.) was 6/6.

In the case of `COc1ccc(S(=O)(=O)N(C(=O)CN2CCOCC2)c2ccccc2/C=C/c2cc[n+]([O-])cc2)cc1.Cl` [Example 13, (E) -4-(2-(2-(N-(4-Methoxybenzenesulfonyl)-N-morpholinoacetyl-amino)phenyl)ethenyl)pyridine 1-oxide hydrochloride], the “Tumor growth inhibition rate (%)” value [1, 2] is reported as 73.8%, the “Tumor growth inhibition rate (%)” value [1, 3] is reported as 92.6% and the “Number of Survival” value ([1]; Experiment 2, 50 mg/kg i.v.) is reported as 6/6. For the same compound, the “Number of Survival” value ([1]; Experiment 2, 75 mg/kg i.v.) was 6/6.

For `COc1ccc(S(=O)(=O)N(C(=O)CN2CCCCC2)c2ccccc2/C=C/c2cc[n+]([O-])cc2)cc1.Cl` [Example 5, (E)-4-(2-(2-(N-(4-Methoxybenzenesulfonyl)-N-piperidinoacetyl-amino)phenyl)ethenyl)pyridine 1-oxide hydrochloride], the “Tumor growth inhibition rate (%)” value [1, 4] was 78.0%, the “Number of Survival” value ([1]; Experiment 1, 50 mg/kg i.v.) was 6/6 and the “Tumor growth inhibition rate (%)” value [1, 5] was 87.7%. The “Number of Survival” value [1, 5] was 6/6.

Compound `COc1ccc(S(=O)(=O)Nc2ccccc2/C=C/c2cc[n+]([O-])cc2)cc1` [Compound A, (E)-4-(2-(2-(N-(4-methoxybenzenesulfonyl)amino)-phenyl)ethenyl)pyridine 1-oxide] has a solubility (Solubility in water; 25 °C) of 29 µg/mL (≈ 75.8 µM).

Compound `COc1ccc(S(=O)(=O)N(C(=O)CN)c2ccccc2/C=C/c2cc[n+]([O-])cc2)cc1.Cl` has a melting point of 235 to 237 °C.

In the case of `COc1ccc(S(=O)(=O)N(C(=O)CN2CCN(c3ccccn3)CC2)c2ccccc2/C=C/c2cc[n+]([O-])cc2)cc1.Cl.Cl` [Example 9, (E)-4-(2-(2-(N-(4-Methoxybenzenesulfonyl)-N-(4-(2-pyridyl)piperazino)acetylamino)phenyl)ethenyl)pyridine 1-oxide dihydrochloride], the “Tumor growth inhibition rate (%)” value [1, 4] is reported as 80.8%, the “Tumor growth inhibition rate (%)” value [1, 6] is reported as 93.6% and the “Number of Survival” value ([1]; Experiment 1, 50 mg/kg i.v.) is reported as 6/6. The “Number of Survival” value ([1]; Experiment 1, 75 mg/kg i.v.) was 5/6.

`COc1ccc(S(=O)(=O)N(C(=O)c2ccncc2)c2ccccc2/C=C/c2cc[n+]([O-])cc2)cc1.Cl.Cl` showed a melting point of 198 to 200 °C.

In the case of `COc1ccc(S(=O)(=O)N(C(=O)c2cccnc2)c2ccccc2/C=C/c2cc[n+]([O-])cc2)cc1.Cl.Cl`, the melting point is reported as 187 to 189 °C.

In the case of `COc1ccc(S(=O)(=O)N(C(=O)CN(C)C)c2ccccc2/C=C/c2cc[n+]([O-])cc2)cc1.Cl` [Example 8, (E)-4-(2-(2-(N-(N,N-Dimethylglycyl)-N-(4-methoxybenzenesulfonyl) -amino)phenyl)ethenyl)pyridine 1-oxide hydrochloride], the “Tumor growth inhibition rate (%)” value [1, 4] is reported as 87.0%, the “Tumor growth inhibition rate (%)” value [1, 6] is reported as 95.9% and the “Number of Survival” value ([1]; Experiment 1, 50 mg/kg i.v.) is reported as 5/6. For the same compound, the “Number of Survival” value ([1]; Experiment 1, 75 mg/kg i.v.) was 5/6.

With `COc1ccc(S(=O)(=O)N(C(C)=O)c2ccccc2/C=C/c2cc[n+]([O-])cc2)cc1` [Compound B, (E)-4-(2-(2-(N-acetyl-N-(4-methoxy-benzenesulfonyl)amino)phenyl)ethenyl)pyridine 1-oxide] the solubility (Solubility in water; 25° C., control compounds, read-out: water solubility) was 18 µg/mL (≈ 42.4 µM).
